Literature values as cited in paper PMC11728000, “Antitumor Activity and Multi-Target Mechanism of Phenolic Schiff Bases Bearing Methanesulfonamide Fragments: Cell Cycle Analysis and a Molecular Modeling Study” (International Journal of Molecular Sciences, 2024).

What was measured:
[1] = system: MOLT-4; set-up: method as in https://dtp.cancer.gov/dtpstandard/dwindex/index.jsp; settings: ref https://dtp.cancer.gov/dtpstandard/dwindex/index.jsp; cited from earlier work
[2] = system: A549/ATCC; set-up: method as in https://dtp.cancer.gov/dtpstandard/dwindex/index.jsp; settings: ref https://dtp.cancer.gov/dtpstandard/dwindex/index.jsp; cited from earlier work
[3] = system: EKVX; set-up: method as in https://dtp.cancer.gov/dtpstandard/dwindex/index.jsp; settings: ref https://dtp.cancer.gov/dtpstandard/dwindex/index.jsp; cited from earlier work
[4] = system: NCI-H23; set-up: method as in https://dtp.cancer.gov/dtpstandard/dwindex/index.jsp; settings: ref https://dtp.cancer.gov/dtpstandard/dwindex/index.jsp; cited from earlier work
[5] = system: NCI-H322M; set-up: method as in https://dtp.cancer.gov/dtpstandard/dwindex/index.jsp; settings: ref https://dtp.cancer.gov/dtpstandard/dwindex/index.jsp; cited from earlier work
[6] = system: NCI-H460; set-up: method as in https://dtp.cancer.gov/dtpstandard/dwindex/index.jsp; settings: ref https://dtp.cancer.gov/dtpstandard/dwindex/index.jsp; cited from earlier work
[7] = system: KM12; set-up: method as in https://dtp.cancer.gov/dtpstandard/dwindex/index.jsp; settings: ref https://dtp.cancer.gov/dtpstandard/dwindex/index.jsp; cited from earlier work
[8] = system: SF-268; set-up: method as in https://dtp.cancer.gov/dtpstandard/dwindex/index.jsp; settings: ref https://dtp.cancer.gov/dtpstandard/dwindex/index.jsp; cited from earlier work
[9] = system: SF-295; set-up: method as in https://dtp.cancer.gov/dtpstandard/dwindex/index.jsp; settings: ref https://dtp.cancer.gov/dtpstandard/dwindex/index.jsp; cited from earlier work
[10] = system: SNB-19; set-up: method as in https://dtp.cancer.gov/dtpstandard/dwindex/index.jsp; settings: ref https://dtp.cancer.gov/dtpstandard/dwindex/index.jsp; cited from earlier work
[11] = system: SNB-75; set-up: method as in https://dtp.cancer.gov/dtpstandard/dwindex/index.jsp; settings: ref https://dtp.cancer.gov/dtpstandard/dwindex/index.jsp; cited from earlier work
[12] = system: U251; set-up: method as in https://dtp.cancer.gov/dtpstandard/dwindex/index.jsp; settings: ref https://dtp.cancer.gov/dtpstandard/dwindex/index.jsp; cited from earlier work
[13] = system: MALME-3M; set-up: method as in https://dtp.cancer.gov/dtpstandard/dwindex/index.jsp; settings: ref https://dtp.cancer.gov/dtpstandard/dwindex/index.jsp; cited from earlier work
[14] = system: SK-MEL-2; set-up: method as in https://dtp.cancer.gov/dtpstandard/dwindex/index.jsp; settings: ref https://dtp.cancer.gov/dtpstandard/dwindex/index.jsp; cited from earlier work
[15] = system: SK-MEL-28; set-up: method as in https://dtp.cancer.gov/dtpstandard/dwindex/index.jsp; settings: ref https://dtp.cancer.gov/dtpstandard/dwindex/index.jsp; cited from earlier work
[16] = system: UACC-257; set-up: method as in https://dtp.cancer.gov/dtpstandard/dwindex/index.jsp; settings: ref https://dtp.cancer.gov/dtpstandard/dwindex/index.jsp; cited from earlier work
[17] = system: UACC-62; set-up: method as in https://dtp.cancer.gov/dtpstandard/dwindex/index.jsp; settings: ref https://dtp.cancer.gov/dtpstandard/dwindex/index.jsp; cited from earlier work
[18] = system: IGROV1; set-up: method as in https://dtp.cancer.gov/dtpstandard/dwindex/index.jsp; settings: ref https://dtp.cancer.gov/dtpstandard/dwindex/index.jsp; cited from earlier work
[19] = system: NCI/ADR-RES; set-up: method as in https://dtp.cancer.gov/dtpstandard/dwindex/index.jsp; settings: ref https://dtp.cancer.gov/dtpstandard/dwindex/index.jsp; cited from earlier work
[20] = system: 786-0; set-up: method as in https://dtp.cancer.gov/dtpstandard/dwindex/index.jsp; settings: ref https://dtp.cancer.gov/dtpstandard/dwindex/index.jsp; cited from earlier work
[21] = system: A498; set-up: method as in https://dtp.cancer.gov/dtpstandard/dwindex/index.jsp; settings: ref https://dtp.cancer.gov/dtpstandard/dwindex/index.jsp; cited from earlier work
[22] = system: ACHN; set-up: method as in https://dtp.cancer.gov/dtpstandard/dwindex/index.jsp; settings: ref https://dtp.cancer.gov/dtpstandard/dwindex/index.jsp; cited from earlier work
[23] = system: CAKI-1; set-up: method as in https://dtp.cancer.gov/dtpstandard/dwindex/index.jsp; settings: ref https://dtp.cancer.gov/dtpstandard/dwindex/index.jsp; cited from earlier work
[24] = system: RXF 393; set-up: method as in https://dtp.cancer.gov/dtpstandard/dwindex/index.jsp; settings: ref https://dtp.cancer.gov/dtpstandard/dwindex/index.jsp; cited from earlier work
[25] = system: TK-10; set-up: method as in https://dtp.cancer.gov/dtpstandard/dwindex/index.jsp; settings: ref https://dtp.cancer.gov/dtpstandard/dwindex/index.jsp; cited from earlier work
[26] = system: UO-31; set-up: method as in https://dtp.cancer.gov/dtpstandard/dwindex/index.jsp; settings: ref https://dtp.cancer.gov/dtpstandard/dwindex/index.jsp; cited from earlier work
[27] = system: PC-3; set-up: method as in https://dtp.cancer.gov/dtpstandard/dwindex/index.jsp; settings: ref https://dtp.cancer.gov/dtpstandard/dwindex/index.jsp; cited from earlier work
[28] = system: DU-145; set-up: method as in https://dtp.cancer.gov/dtpstandard/dwindex/index.jsp; settings: ref https://dtp.cancer.gov/dtpstandard/dwindex/index.jsp; cited from earlier work
[29] = system: MCF-7; set-up: method as in https://dtp.cancer.gov/dtpstandard/dwindex/index.jsp; settings: ref https://dtp.cancer.gov/dtpstandard/dwindex/index.jsp; cited from earlier work
[30] = system: MDA-MB-231/ATCC; set-up: method as in https://dtp.cancer.gov/dtpstandard/dwindex/index.jsp; settings: ref https://dtp.cancer.gov/dtpstandard/dwindex/index.jsp; cited from earlier work
[31] = system: BT-549; set-up: method as in https://dtp.cancer.gov/dtpstandard/dwindex/index.jsp; settings: ref https://dtp.cancer.gov/dtpstandard/dwindex/index.jsp; cited from earlier work
[32] = system: T-47D; set-up: method as in https://dtp.cancer.gov/dtpstandard/dwindex/index.jsp; settings: ref https://dtp.cancer.gov/dtpstandard/dwindex/index.jsp; cited from earlier work
[33] = system: NSC Lung Cancer subpanel tumor cell lines; settings: cited from earlier work; for GI50: read-out: GI50, subpanel average, ref https://dtp.cancer.gov/dtpstandard/dwindex/index.jsp; for CC50: read-out: LC50, subpanel average, ref https://dtp.cancer.gov/dtpstandard/dwindex/index.jsp; for TGI, subpanel average: ref https://dtp.cancer.gov/dtpstandard/dwindex/index.jsp
[34] = system: Ovarian Cancer subpanel tumor cell lines; settings: cited from earlier work; for GI50: read-out: GI50, subpanel average, ref https://dtp.cancer.gov/dtpstandard/dwindex/index.jsp; for CC50: read-out: LC50, subpanel average, ref https://dtp.cancer.gov/dtpstandard/dwindex/index.jsp; for TGI, subpanel average: ref https://dtp.cancer.gov/dtpstandard/dwindex/index.jsp
[35] = system: Renal Cancer subpanel tumor cell lines; settings: cited from earlier work; for GI50: read-out: GI50, subpanel average, ref https://dtp.cancer.gov/dtpstandard/dwindex/index.jsp; for CC50: read-out: LC50, subpanel average, ref https://dtp.cancer.gov/dtpstandard/dwindex/index.jsp; for TGI, subpanel average: ref https://dtp.cancer.gov/dtpstandard/dwindex/index.jsp
[36] = system: Prostate Cancer subpanel tumor cell lines; settings: cited from earlier work; for GI50: read-out: GI50, subpanel average, ref https://dtp.cancer.gov/dtpstandard/dwindex/index.jsp; for CC50: read-out: LC50, subpanel average, ref https://dtp.cancer.gov/dtpstandard/dwindex/index.jsp; for TGI, subpanel average: ref https://dtp.cancer.gov/dtpstandard/dwindex/index.jsp
[37] = system: Breast Cancer subpanel tumor cell lines; settings: cited from earlier work; for GI50: read-out: GI50, subpanel average, ref https://dtp.cancer.gov/dtpstandard/dwindex/index.jsp; for TGI, subpanel average: ref https://dtp.cancer.gov/dtpstandard/dwindex/index.jsp
[38] = system: NCI-H226; set-up: method as in https://dtp.cancer.gov/dtpstandard/dwindex/index.jsp; settings: ref https://dtp.cancer.gov/dtpstandard/dwindex/index.jsp; cited from earlier work
[39] = system: MDA-MB-468; set-up: method as in https://dtp.cancer.gov/dtpstandard/dwindex/index.jsp; settings: ref https://dtp.cancer.gov/dtpstandard/dwindex/index.jsp; cited from earlier work

Cc1ccc(-c2cc(C(F)(F)F)nn2-c2ccc(S(N)(=O)=O)cc2)cc1 [Celecoxib, celecoxib]
GI50 [1]: 15.8 µM | GI50 [2]: 15.8 µM | GI50 [3]: 19.9 µM | GI50 [4]: 15.8 µM | GI50 [5]: 19.9 µM | GI50 [6]: 15.8 µM | GI50 [7]: 15.8 µM | GI50 [8]: 15.8 µM | GI50 [9]: 15.8 µM | GI50 [10]: 19.9 µM | GI50 [11]: 15.8 µM | GI50 [12]: 15.8 µM | GI50 [13]: 19.9 µM | GI50 [14]: 15.8 µM | GI50 [15]: 15.8 µM | GI50 [16]: 19.9 µM | GI50 [17]: 15.8 µM | GI50 [18]: 15.8 µM | GI50 [19]: 15.8 µM | GI50 [20]: 39.8 µM | GI50 [21]: 15.8 µM | GI50 [22]: 15.8 µM | GI50 [23]: 19.9 µM | GI50 [24]: 15.8 µM | GI50 [25]: 19.9 µM | GI50 [26]: 15.8 µM | GI50 [27]: 12.6 µM | GI50 [28]: 15.8 µM | GI50 [29]: 15.8 µM | GI50 [30]: 15.8 µM | GI50 [31]: 19.9 µM | GI50 [32]: 15.8 µM | GI50 [33]: 25.1 µM | CC50 [33]: 67.1 µM | TGI, subpanel average [33]: 41.93 µM | GI50 [34]: 17.1 µM | CC50 [34]: 65.9 µM | TGI, subpanel average [34]: 34.20 µM | GI50 [35]: 19.9 µM | CC50 [35]: 61.2 µM | TGI, subpanel average [35]: 41.19 µM | GI50 [36]: 14.2 µM | CC50 [36]: 57 µM | TGI, subpanel average [36]: 28.37 µM | GI50 [37]: 17.5 µM | TGI, subpanel average [37]: 34.89 µM

C#Cc1cccc(Nc2ncnc3cc(OCCOC)c(OCCOC)cc23)c1 [Erlotinib, erlotinib]
GI50 [1]: 25.1 µM | GI50 [2]: 10 µM | GI50 [3]: 0.199 µM | GI50 [38]: 39.8 µM | GI50 [4]: 31.6 µM | GI50 [5]: 0.1 µM | GI50 [6]: 6.31 µM | GI50 [7]: 79.4 µM | GI50 [8]: 15.8 µM | GI50 [9]: 15.8 µM | GI50 [10]: 12.6 µM | GI50 [11]: 12.6 µM | GI50 [12]: 25.1 µM | GI50 [13]: 1.58 µM | GI50 [14]: 6.31 µM | GI50 [15]: 50.1 µM | GI50 [16]: 100 µM | GI50 [17]: 3.16 µM | GI50 [18]: 0.316 µM | GI50 [19]: 7.94 µM | GI50 [20]: 10 µM | GI50 [21]: 2.51 µM | GI50 [22]: 0.199 µM | GI50 [23]: 0.199 µM | GI50 [24]: 3.98 µM | GI50 [25]: 0.251 µM | GI50 [26]: 1 µM | GI50 [27]: 39.8 µM | GI50 [28]: 1.99 µM | GI50 [29]: 100 µM | GI50 [30]: 6.31 µM | GI50 [31]: 31.6 µM | GI50 [32]: 3.98 µM | GI50 [39]: 0.126 µM | GI50 [33]: 13.1 µM | CC50 [33]: 97.7 µM | TGI, subpanel average [33]: 73.76 µM | GI50 [34]: 5.52 µM | CC50 [34]: 97.1 µM | TGI, subpanel average [34]: 74.41 µM | GI50 [35]: 2.46 µM | CC50 [35]: 89.2 µM | TGI, subpanel average [35]: 42.59 µM | GI50 [36]: 20.9 µM | CC50 [36]: > 100 µM | TGI, subpanel average [36]: c (compounds showed values ≥ 100 μM) | GI50 [37]: 24.7 µM | CC50 ([37]; read-out: LC50, subpanel average, ref https://dtp.cancer.gov/dtpstandard/dwindex/index.jsp): 96.4 µM | TGI, subpanel average [37]: 70.53 µM
